Measured values taken from patent publication US10214545B2, “Amido-substituted imidazopyridazines useful in the treatment of hyper-proliferative and/or angiogenesis disorders” (BAYER PHARMA AKTIENGESELLSCHAFT, priority 2014, dated 2019).

Experiments:
[1] = biological target: T1, human full-length MKNK1 (Homo sapiens (Human), UniProt Q9BUB5, T344D); assay: MKNK1 kinase assay (TR-FRET, 10 μM ATP); format: biochemical; details: 15 min preincubation, GST-MKNK1 (T344D)
Method: MKNK1-inhibitory activity of compounds of the present invention was quantified employing the MKNK1 TR-FRET assay as described in the following paragraphs. […] As substrate for the kinase reaction the biotinylated peptide biotin-Ahx-[…]
For the assay 50 nL of a 100 fold concentrated solution of the test compound in DMSO was pipetted into a black low volume 384 well microtiter plate (Greiner Bio-One, Frickenhausen, Germany), 2 μL of a solution of MKNK1 in aqueous assay buffer [50 mM HEPES pH 7.5, 5 mM magnesium chloride, 1.0 mM dithiothreitol, 0.005% (v/v) Nonidet-P40 (Sigma)] was added and the mixture was incubated for 15 min at 22° C. to allow pre-binding of the test compounds to the enzyme before the start of the kinase reaction. […] The concentration of MKNK1 was adjusted depending of the activity of the enzyme lot and was chosen appropriate to have the assay in the linear range, typical concentrations were in the range of 0.05 μg/mi. The reaction was stopped by the addition of 5 μL of a solution of TR-FRET detection reagents (5 nM streptavidine-XL665 [Cisbio Bioassays, Codolet, France] and 1 nM anti-ribosomal protein […] (pSer236)-antibody from Invitrogen [#44921G] and 1 nM LANCE EU-W1024 labeled ProteinG [Perkin-Elmer, product no. AD0071]) in an aqueous EDTA-solution (100 mM EDTA, 0.1% (w/v) bovine serum albumin in 50 mM HEPES pH 7.5).
(§1) The resulting mixture was incubated for 1 h at 22° C. to allow the formation of complex between the phosphorylated biotinylated peptide and the detection reagents. Subsequently the amount of phosphorylated substrate was evaluated by measurement of the resonance energy transfer from the Eu-chelate to the streptavidine-XL.

[2] = biological target: T1, human full-length MKNK1; assay: MKNK1 kinase high ATP assay (TR-FRET, 2 mM ATP); format: biochemical; details: 15 min preincubation, GST-MKNK1 (T344D)
Method: MKNK1-inhibitory activity at high ATP of compounds of the present invention after their preincubation with MKNK1 was quantified employing the TR-FRET-based MKNK1 high ATP assay as described in the following paragraphs.
As substrate for the kinase reaction the biotinylated peptide biotin-Ahx-[…]
For the assay 50 nL of a 100 fold concentrated solution of the test compound in DMSO was pipetted into a black low volume 384 well microtiter plate (Greiner Bio-One, Frickenhausen, Germany), 2 μL of a solution of MKNK1 in aqueous assay buffer [50 mM HEPES pH 7.5, 5 mM magnesium chloride, 1.0 mM dithiothreitol, 0.005% (v/v) Nonidet-P40 (Sigma)] was added and the mixture was incubated for 15 min at 22° C. to allow pre-binding of the test compounds to the enzyme before the start of the kinase reaction. Then the kinase reaction was started by the addition of 3 μL of a solution of adenosine-tri-phosphate (ATP, 3.3 mM=>final conc. in the 5 μL assay volume is 2 mM) and substrate (0.1 μM=>final conc. in the 5 μL assay volume is 0.06 μM) in assay buffer and the resulting mixture was incubated for a reaction time of 30 min at 22° C. The concentration of MKNK1 was adjusted depending of the activity of the enzyme lot and was chosen appropriate to have the assay in the linear range, typical concentrations were in the range of 0.003 μg/mL. The reaction was stopped by the addition of 5 μL of a solution of TR-FRET detection reagents (5 nM streptavidine-XL665 [Cisbio Bioassays, Codolet, France] and 1 nM anti-ribosomal protein S6 (pSer236)-antibody from Invitrogen [#44921G] and 1 nM LANCE EU-W1024 labeled ProteinG [Perkin-Elmer, product no. AD0071]) in an aqueous EDTA-solution (100 mM EDTA, 0.1% (w/v) bovine serum albumin in 50 mM HEPES pH 7.5).
as §1

T1 sequence (Q9BUB5 other isoform, or with tags, fused parts or gaps T344D): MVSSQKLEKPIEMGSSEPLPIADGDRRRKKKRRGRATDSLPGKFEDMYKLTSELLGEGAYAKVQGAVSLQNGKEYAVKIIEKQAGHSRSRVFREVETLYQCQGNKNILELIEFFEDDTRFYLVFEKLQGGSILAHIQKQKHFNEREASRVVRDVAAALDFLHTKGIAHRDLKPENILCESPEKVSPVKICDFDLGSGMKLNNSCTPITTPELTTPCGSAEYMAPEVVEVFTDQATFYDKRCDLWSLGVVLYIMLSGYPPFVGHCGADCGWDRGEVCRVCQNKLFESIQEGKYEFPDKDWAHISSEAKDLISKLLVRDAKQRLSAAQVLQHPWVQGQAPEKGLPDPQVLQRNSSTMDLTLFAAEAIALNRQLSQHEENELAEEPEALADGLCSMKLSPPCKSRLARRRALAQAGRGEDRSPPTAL

Structure (SMILES)	IC50 [1] [nM]	IC50 [2] [nM]
C[C@H](CO)NC(=O)c1ccc2ncc(-c3cc4ccccc4o3)n2n1 [Example 11, 3-(1-Benzofuran-2-yl)-N-[(2R)-1-hydroxypropan-2-yl]imidazo[1,2-b]pyridazine-6-carboxamide]	4.1	8.8
CC(C)[C@H](CO)NC(=O)c1ccc2ncc(-c3cc4ccccc4o3)n2n1 [Example 13, 3-(1-Benzofuran-2-yl)-N-[(2R)-1-hydroxy-3-methylbutan-2-yl]imidazo[1,2-b]-pyridazine-6-carboxamide]	6.8	12
CN(C)CCN(C)C(=O)c1ccc2ncc(-c3cc4c(N5CCOCC5)nccc4o3)n2n1 [Example 3, N-[2-(dimethylamino)ethyl]-N-methyl-3-[4-(morpholin-4-yl)furo[3,2-c]pyridin-2-yl]imidazo[1,2-b]pyridazine-6-carboxamide]	88	140
O=C(NCc1ccccc1)c1ccc2ncc(-c3cc4ccccc4o3)n2n1 [Example 14, 3-(1-Benzofuran-2-yl)-N-benzylimidazo[1,2-b]pyridazine-6-carboxamide]	5.2	12
CN1CCN(C(=O)c2ccc3ncc(-c4cc5c(N6CCOCC6)nccc5o4)n3n2)CC1 [Example 4, (4-Methylpiperazin-1-yl){3-[4-(morpholin-4-yl)furo[3,2-c]pyridin-2-yl]imidazo-[1,2-b]pyridazin-6-yl}methanone]	110	280
CC(C)[C@@H](CO)NC(=O)c1ccc2ncc(-c3cc4ccccc4o3)n2n1 [Example 18, 3-(1-Benzofuran-2-yl)-N-[(2S)-1-hydroxy-3-methylbutan-2-yl]imidazo[1,2-b]-pyridazine-6-carboxamide]	1.3	42
CN(Cc1ccccc1)C(=O)c1ccc2ncc(-c3cc4ccccc4o3)n2n1 [Example 16, 3-(1-Benzofuran-2-yl)-N-benzyl-N-methylimidazo[1,2-b]pyridazine-6-carboxamide]	8.8	23
COCCNC(=O)c1ccc2ncc(-c3cc4ccccc4o3)n2n1 [Example 15, 3-(1-Benzofuran-2-yl)-N-(2-methoxyethyl)imidazo[1,2-b]pyridazine-6-carboxamide]	8	15
CN(C)CCNC(=O)c1ccc2ncc(-c3cc4ccccc4o3)n2n1 [Example 17, 3-(1-Benzofuran-2-yl)-N-[2-(dimethylamino)ethyl]imidazo[1,2-b]pyridazine-6-carboxamide]	1.7	34
COCCCNC(=O)c1ccc2ncc(-c3cc4ccccc4o3)n2n1 [Example 12, 3-(1-Benzofuran-2-yl)-N-(3-methoxypropyl)imidazo[1,2-b]pyridazine-6-carboxamide]	4.9	9.5
CN(C)CCCNC(=O)c1ccc2ncc(-c3cc4ccccc4o3)n2n1 [Example 10, 3-(1-Benzofuran-2-yl)-N-[3-(dimethylamino)propyl]imidazo[1,2-b]pyridazine-6-carboxamide]	3.3	7.9
